Results published in patent US20140356287A1, “PLOD2 as a Target of Intervention for Sarcoma Metastasis” (The Trustees of the University of Pennsylvania, priority 2013, published 2014).
“Also recorded” adds a separate entry of the source.

Tested on: KIA cells
Assay: Subcutaneous KIA cell allograft in nude mice (primary tumor, lung metastasis, collagen)
Format: in vivo
Details: 1 mg/kg or 3 mg/kg intraperitoneal every other day for 3 weeks
From the text: Generation of Hif1α^fl/fl mice (Ryan et al., 2000, Cancer Res 60(15):4010-5) and LSL-Kras^G12D/+Trp53^fl/fl mice has been previously described (Kirsch et al., 2007, Nat Med 13(8):992-7). These mice were crossed to create the LSL-Kras^G12D/+Trp53^fl/flHif1a^fl/fl animals. Soft tissue sarcomas were generated by intramuscular injection of a calcium phosphate precipitate of Ad-Cre (Gene Transfer Vector Core, University of Iowa). For transplant tumors 1×106 KIA (derived from LSL-Kras^G12D/+[…] tumors) were injected subcutaneously into the flanks of nu/nu mice (Charles River Laboratories). In each experiment 10 mice per experimental group were used with each mouse bearing two subcutaneous tumors. Tumors developed after 3-5 days, were monitored every other day, and animals were euthanized after 20-30 days. For in vivo lung metastasis analysis lung tissues were removed, and sections were stained with hematoxylin and eosin. Images were acquired using a Nikon SMZ800 stereoscope with a Nikon 1200F digital camera and Nikon Act-1 software. The ratio of total metastatic sarcoma foci to total lung area (% tumor burden) was determined using ImagePro 6.3 software (Media Cybernetics Inc.). Additionally, the percent of animals in the entire cohort with metastatic foci was evaluated along with total number of metastatic foci per experiment and the averae number of sarcoma lung foci per lung in each experiment. For Minoxidil injections, allografts and drug treatments were started simultaneously. Mice bearing subcutaneous KIA tumors on each flank were intraperitoneal injected with PBS, 1 mg/kg Minoxidil, or 3 mg/kg Minoxidil every other day unless the animals were euthanized, the tumors and lungs removed.
Immunohistochemistry of tissue sections with antibodies to HIF1α (Abcam) and Lectin (Vector Labs) was performed using enzymatic Avidin-Biotin Complex (ABC)-diaminobenzidine (DAB) staining (Vector Labs). Nuclei were counterstained with hematoxylin. […] Collagen was quantified using Image-Pro software. […]

overall animal health/weight: no effect; also recorded: unaffected
Structure (SMILES): Nc1cc(N2CCCCC2)nc(N)[n+]1[O-] [Minoxidil]
primary tumor volume: no effect
tumor weight (mass): no effect
